Drawing on patent publication US20200031778A1, “NOVEL 5-SUBSTITUTED IMIDAZOLYLMETHYL DERIVATIVES” (Bayer CropScience Aktiengesellschaft, priority 2016, published 2020), this text covers pest or weed control and chromatographic logP for 13 compounds.

One may read the chromatographic logP as a lipophilicity value derived from retention on a column.

One data set relates to Sphaerotheca fuliginea. Kind of data set: Example IX-C: in vivo preventive test on Sphaerotheca fuliginea (powdery mildew on cucurbits). To be noted: Podosphaera fuliginea, 360 h; compounds of formula IX; 500 ppm of active ingredient; gherkin plants, preventive spray; evaluated 15 days after inoculation; read-out: efficacy. How it is done: Example IX-C: In Vivo Preventive Test on Sphaerotheca Fuliginea (Powdery Mildew on Cucurbits)
(§1) The active ingredients are made soluble and homogenized in a mixture of Dimethyl sulfoxide/Acetone/Tween® 80 and then diluted in water to the desired concentration.
The young plants of gherkin are treated by spraying the active ingredient prepared as described above. Control plants are treated only with an aqueous solution of Acetone/Dimethyl sulfoxide/Tween® 80.
After 24 hours, the plants are contaminated by spraying the leaves with an aqueous suspension of Sphaerotheca fuliginea spores. The contaminated gherkin plants are incubated for 72 hours at 18° C. and at 100% relative humidity and then for 12 days at 20° C. and at 70-80% relative humidity.
The test is evaluated 15 days after the inoculation. 0% means an efficacy which corresponds to that of the control plants while an efficacy of 100% means that no disease is observed.

The subject of another data set is Puccinia recondita. Kind of data set: Example IX-A: in vivo preventive test on Puccinia recondita (brown rust on wheat). To be noted: 264 h, compounds of formula IX, 500 ppm of active ingredient, wheat plants, preventive spray, evaluated 11 days after inoculation, read-out: efficacy. As for the experimental part: Example IX-A: In Vivo Preventive Test on Puccinia Recondita (Brown Rust on Wheat)
as §1
The young plants of wheat are treated by spraying the active ingredient prepared as described above. Control plants are treated only with an aqueous solution of Acetone/Dimethyl sulfoxide/Tween® 80.
After 24 hours, the plants are contaminated by spraying the leaves with an aqueous suspension of Puccinia recondita spores. The contaminated wheat plants are incubated for 24 hours at 20° C. and at 100% relative humidity and then for 10 days at 20° C. and at 70-80% relative humidity.
(§2) The test is evaluated 11 days after the inoculation. 0% means an efficacy which corresponds to that of the control plants while an efficacy of 100% means that no disease is observed.

Another data set has as its system Septoria tritici. Kind of data set: Example IX-B: in vivo preventive test on Septoria tritici (leaf spot on wheat). The following applies: Zymoseptoria tritici, 576 h; compounds of formula IX; 500 ppm of active ingredient; wheat plants, preventive spray; evaluated 24 days after inoculation; read-out: efficacy. The procedure, abridged:
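Wheat seedlings sprayed preventively with compound dissolved in DMSO/acetone/Tween 80 and diluted in water; solvent-only controls. Spore suspension of S. tritici sprayed 24 h later; 72 h at 18 °C/100% RH, then 21 days at 20 °C/90% RH. Efficacy scored 24 days post-inoculation, 0% = control, 100% = no disease.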

For the next data set, the system named is Uromyces appendiculatus. The data set can be described thus: Example IX-D: in vivo preventive test on Uromyces appendiculatus (bean rust). The following applies: 264 h, compounds of formula IX, 500 ppm of active ingredient, bean plants, preventive spray, evaluated 11 days after inoculation, read-out: efficacy. How it is done: Example IX-D: In Vivo Preventive Test on Uromyces Appendiculatus (Bean Rust)
as §1
The young plants of bean are treated by spraying the active ingredient prepared as described above. Control plants are treated only with an aqueous solution of Acetone/Dimethyl sulfoxide/Tween® 80.
After 24 hours, the plants are contaminated by spraying the leaves with an aqueous suspension of Uromyces appendiculatus spores. The contaminated bean plants are incubated for 24 hours at 20° C. and at 100% relative humidity and then for 10 days at 20° C. and at 70-80% relative humidity.
as §2
control plants while an efficacy of 100% means that no disease was observed.

Data set [1] in a line: Log P by HPLC on reversed phase columns (EEC directive 79/831 Annex V.A8; methods [a], [b], [c]). Format: physicochemical. The following applies: reversed phase HPLC column; method [a]: LC-UV, acidic range, 0.1% formic acid in water and acetonitrile as eluent (linear gradient from 10% to 95% acetonitrile). The procedure, abridged:
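Reversed-phase HPLC with LC-UV detection, 10→95% acetonitrile linear gradient; aqueous eluent 0.1% formic acid [a], 0.001 M ammonium acetate, neutral [b], or 0.1% phosphoric acid [c]. Calibrated against C3–C16 alkan-2-ones of known Log P by retention-time linear interpolation; multiple values within a method separated by "+".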

Structures are written as SMILES.

`O=C(Cn1cncc1Cl)c1ccc(Oc2ccc(Br)cn2)cc1Cl` [IX-79]: the pest or weed control at 500 ppm in the data set on Sphaerotheca fuliginea is 90 to 100%; in the data set with Puccinia recondita, 80 to 89%; in the data set on Septoria tritici, 90 to 100%; with Uromyces appendiculatus, 90 to 100%. The chromatographic logP in data set [1] amounted to 2.59.
For the compound `N#Cc1cncn1CC(=O)c1ccc(Oc2ccc(Cl)nc2)cc1Cl` [IX-60], the pest or weed control at 500 ppm is 90 to 100% with Sphaerotheca fuliginea, 80 to 89% with Puccinia recondita, 90 to 100% in the data set with Septoria tritici and 90 to 100% in the data set on Uromyces appendiculatus. In data set [1], this compound yielded a chromatographic logP of 2.62.
`O=C(Cn1cncc1Cl)c1cnc(Oc2ccc(Cl)cc2)cc1Cl` [IX-23]: the pest or weed control at 500 ppm with Sphaerotheca fuliginea was in the range of 90 to 100%; in the data set on Puccinia recondita it was 80 to 89%; with Septoria tritici, 90 to 100%; in the data set with Uromyces appendiculatus, 90 to 100%. The chromatographic logP in data set [1] came to 2.75.
`N#Cc1cncn1CC(=O)c1ccc(Oc2ccc(Cl)cc2)cc1Cl` [IX-31]: the pest or weed control at 500 ppm with Sphaerotheca fuliginea, in the data set with Puccinia recondita, with Septoria tritici and with Uromyces appendiculatus was 90 to 100% each time. The compound further yielded a chromatographic logP in data set [1] of 3.46.
Consider `O=C(Cn1cncc1F)c1cnc(Oc2ccc(OC(F)(F)F)cc2)cc1C(F)(F)F` [IX-108], for which the pest or weed control at 500 ppm was in the range of 90 to 100% with Sphaerotheca fuliginea, 80 to 89% with Puccinia recondita, 90 to 100% with Septoria tritici and 90 to 100% in the data set with Uromyces appendiculatus. The same compound showed a chromatographic logP in data set [1] of 2.89.
`N#Cc1cncn1CC(=O)c1ccc(Oc2ccc(C(F)(F)F)cc2)cc1C(F)(F)F` [IX-69]: the pest or weed control at 500 ppm in the data set with Sphaerotheca fuliginea, in the data set on Puccinia recondita, with Septoria tritici and in the data set with Uromyces appendiculatus was 90 to 100% in each case. The compound also gave a chromatographic logP in data set [1] of 3.69.
Take `O=C(Cn1cncc1F)c1cnc(Oc2ccc(Cl)cc2F)cc1C(F)(F)F` [IX-95]: the pest or weed control at 500 ppm with Sphaerotheca fuliginea was 90 to 100%; with Puccinia recondita, 70 to 79%; with Septoria tritici it was 70 to 79%; in the data set with Uromyces appendiculatus it was 90 to 100%. The same compound showed a chromatographic logP in data set [1] of 2.84.
Regarding `O=C(Cn1cncc1F)c1ccc(Oc2ccc(Cl)cc2)cc1C(F)(F)F` [IX-83], the pest or weed control at 500 ppm in the data set on Sphaerotheca fuliginea was in the range of 80 to 89%; with Puccinia recondita, 80 to 89%; in the data set with Septoria tritici, 90 to 100%; in the data set on Uromyces appendiculatus, 90 to 100%. The chromatographic logP in data set [1] was 2.88.
For the compound `O=C(Cn1cncc1Cl)c1ccc(Oc2ccc(C(F)(F)F)cc2)cc1C(F)(F)F` [IX-53], the pest or weed control at 500 ppm with Puccinia recondita, in the data set with Septoria tritici and in the data set with Uromyces appendiculatus was 90 to 100% throughout. Besides, the chromatographic logP in data set [1] worked out at 3.51.
Regarding `N#Cc1cncn1CC(=O)c1cnc(Oc2ccc(C(F)F)cc2)cc1C(F)(F)F` [IX-98], the pest or weed control at 500 ppm lay within 80 to 89% with Puccinia recondita, 90 to 100% in the data set with Septoria tritici and 90 to 100% in the data set on Uromyces appendiculatus. In data set [1], this compound displayed a chromatographic logP of 3.13.
With `O=C(Cn1cncc1F)c1cnc(Oc2ccc(C(F)F)cc2)cc1C(F)(F)F` [IX-97], the pest or weed control at 500 ppm with Puccinia recondita lay within 80 to 89%; in the data set on Septoria tritici, 90 to 100%; with Uromyces appendiculatus, 90 to 100%. The chromatographic logP in data set [1] worked out at 2.53.
With `N#Cc1cncn1CC(=O)c1cnc(Oc2ccc(Br)cc2)cc1C(F)F` [IX-123], the pest or weed control at 500 ppm in the data set on Puccinia recondita, with Septoria tritici and with Uromyces appendiculatus was 90 to 100% throughout. Besides, in data set [1], the chromatographic logP amounted to 2.89.
Consider `O=C(Cn1cncc1Br)c1ccc(Oc2ccc(Br)cc2)cc1C(F)(F)F` [IX-40], for which the figures for the pest or weed control at 500 ppm in the data set on Puccinia recondita, in the data set with Septoria tritici and in the data set on Uromyces appendiculatus were 80 to 89%, 90 to 100% and 90 to 100%, respectively. In data set [1], this compound showed a chromatographic logP of 3.46.
